Source: patent publication US9187472B2 (AbbVie Inc., priority 2012, dated 2015)

Legend:
[1] = target: NAMPT (human, recombinant, C-terminally His-tagged) (Homo sapiens, UniProt P43490); assay: Time-Resolved Fluorescence Resonance Energy Transfer (TR-FRET) Binding Assay of NAMPT; conditions: without substrates; 6.8 nM NAMPT, 200 nM probe, 3 hours equilibration
How it was run: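 Compounds, diluted in half-log steps, are mixed with enzyme (6.8 nM), fluorescent probe (200 nM) and Tb-anti-His antibody (1 nM) in pH 7.5 HEPES buffer containing 10 mM MgCl2 and 1 mM DTT. Plates equilibrate 3 h at room temperature; normalized FRET ratios are fitted by four-parameter logistic regression for IC50.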

[2] = target: NAMPT (Homo sapiens, UniProt P43490); assay: TR-FRET Binding Assay of NAMPT with PRPP; conditions: with 200 μM PRPP and 2.5 mM ATP; 2 nM NAMPT, 2 nM probe, 16 hours equilibration
How it was run: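 Compounds were mixed with 2 nM His-tagged NAMPT, 2 nM probe, 1 nM terbium anti-His antibody, 200 μM PRPP and 2.5 mM ATP in assay buffer with 2% DMSO, then left 16 hours to permit possible enzymatic processing of compounds before time-resolved FRET was measured.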

[3] = test system: PC3 cells; assay: NAMPT Cell Proliferation Assay; type: cell-based; conditions: Homo sapiens, PC-3, 120 h, 5 days incubation, cell viability by Cell Titer Glo
How it was run: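 PC3 cells were plated at 500 cells/well in RPMI with 10% heat-inactivated FBS, left to attach overnight, then given compounds in 10-fold dilutions from 10 μM to 1×10^−5 μM. After 5 days at 37° C and 5% CO2, viability was read by luminescence and IC50s came from sigmoidal fits of percent inhibition.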

NAMPT, sequence (P43490 whole entry): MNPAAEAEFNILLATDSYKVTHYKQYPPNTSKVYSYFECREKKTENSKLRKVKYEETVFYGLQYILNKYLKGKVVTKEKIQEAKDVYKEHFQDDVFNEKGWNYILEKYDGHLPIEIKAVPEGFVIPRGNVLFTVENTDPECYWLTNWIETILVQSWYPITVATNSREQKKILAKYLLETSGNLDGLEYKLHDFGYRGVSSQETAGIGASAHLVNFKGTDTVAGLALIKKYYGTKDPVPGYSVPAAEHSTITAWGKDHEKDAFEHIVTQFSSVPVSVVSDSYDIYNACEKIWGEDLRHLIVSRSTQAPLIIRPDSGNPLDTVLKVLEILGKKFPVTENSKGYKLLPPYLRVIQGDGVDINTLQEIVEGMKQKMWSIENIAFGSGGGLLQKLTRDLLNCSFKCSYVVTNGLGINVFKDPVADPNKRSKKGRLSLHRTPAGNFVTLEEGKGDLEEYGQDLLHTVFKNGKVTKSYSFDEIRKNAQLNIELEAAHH
NAMPT (human, recombinant, C-terminally His-tagged), sequence (P43490 whole entry): as above

Row | SMILES | IC50 [1] | IC50 [2] | IC50 [3]
1 | CC(C)OC[C@H]1CN(c2ncc(C(=O)NCc3ccn4ccnc4c3)s2)C(=O)O1 [Example 256, N-(imidazo[1,2-a]pyridin-7-ylmethyl)-2-{(5R)-2-oxo-5-[(propan-2-yloxy)methyl]-1,3-oxazolidin-3-yl}-1,3-thiazole-5-carboxamide] | 126 nM | 0.266 nM | 9.84 nM
2 | Cc1cc(CC(=O)N(CC2CCCO2)c2ncc(C(=O)NCc3ccc4nccn4c3)s2)nn1C (stereo not drawn) [Example 190, 2-{[(1,5-dimethyl-1H-pyrazol-3-yl)acetyl](tetrahydrofuran-2-ylmethyl)amino}-N-(imidazo[1,2-a]pyridin-6-ylmethyl)-1,3-thiazole-5-carboxamide] | 400 nM | 4.57 nM | 14.9 nM
3 | O=C(Nc1ccc(C2=CCN(C(=O)CN3CCOCC3)CC2)cc1)Nc1ccc2nccn2c1 [Example 30, 1-imidazo[1,2-a]pyridin-6-yl-3-{4-[1-(morpholin-4-ylacetyl)-1,2,3,6-tetrahydropyridin-4-yl]phenyl}urea] | 1180 nM | 0.785 nM | 38.4 nM
4 | CC(C)CC(=O)N1CCC(O)(c2ccc(C(=O)NCc3ccn4ccnc4c3)s2)CC1 [Example 553, 5-[4-hydroxy-1-(3-methylbutanoyl)piperidin-4-yl]-N-(imidazo[1,2-a]pyridin-7-ylmethyl)thiophene-2-carboxamide] | 478 nM | 0.592 nM | 103 nM
5 | O=C(NCc1ccn2ccnc2c1)c1ccc(C2CN(C(=O)c3ccc(F)cc3)C2)cc1 [Example 649, 4-[1-(4-fluorobenzoyl)azetidin-3-yl]-N-(imidazo[1,2-a]pyridin-7-ylmethyl)benzamide] | 203 nM | 0.749 nM | 70.6 nM
6 | CC(C)Cn1cc(-c2ccc(C(=O)NCc3ccc4ncnn4c3)o2)cn1 [Example 820, 5-[1-(2-methylpropyl)-1H-pyrazol-4-yl]-N-([1,2,4]triazolo[1,5-a]pyridin-6-ylmethyl)furan-2-carboxamide] | 499 nM | 9.28 nM | 802 nM
7 | O=C(NCc1ccc2nccn2c1)c1cnc(N(CC2CCCO2)C(=O)Cc2ccon2)s1 (stereo not drawn) [Example 134, N-(imidazo[1,2-a]pyridin-6-ylmethyl)-2-[(1,2-oxazol-3-ylacetyl)(tetrahydrofuran-2-ylmethyl)amino]-1,3-thiazole-5-carboxamide] | 303 nM | 1.49 nM | 6.54 nM
8 | CC(C)(C)CC(=O)N1CC=C(c2ccc(C(=O)NCc3ccn4ccnc4c3)o2)CC1 [Example 749, 5-[1-(3,3-dimethylbutanoyl)-1,2,3,6-tetrahydropyridin-4-yl]-N-(imidazo[1,2-a]pyridin-7-ylmethyl)furan-2-carboxamide] | 392 nM | 0.79 nM | 77 nM
9 | COCCC(=O)N(CC1CCOCC1)c1ncc(C(=O)NCc2ccc3nccn3c2)s1 [Example 142, N-(imidazo[1,2-a]pyridin-6-ylmethyl)-2-[(3-methoxypropanoyl)(tetrahydro-2H-pyran-4-ylmethyl)amino]-1,3-thiazole-5-carboxamide] | 1430 nM | 3.05 nM | 18.2 nM
10 | O=C(NCc1ccn2ccnc2c1)c1ccc(C2CN(C(=O)C3CCCC3)C2)cc1 [Example 631, 4-[1-(cyclopentylcarbonyl)azetidin-3-yl]-N-(imidazo[1,2-a]pyridin-7-ylmethyl)benzamide] | 616 nM | 1.26 nM | 77.2 nM
11 | CC(C)CC(=O)N1CCC(n2nccc2C(=O)NCc2ccn3ccnc3c2)CC1 [Example 409] | > 10000 nM | 480 nM | ≥ 10000 nM
12 | CC[C@H](C)C(=O)N1CC(c2ccc(NC(=O)NCc3ccn4ccnc4c3)cc2)C1 [Example 453, 1-(imidazo[1,2-a]pyridin-7-ylmethyl)-3-(4-{1-[(2S)-2-methylbutanoyl]azetidin-3-yl}phenyl)urea] | 152 nM | 0.258 nM | 9.21 nM
13 | O=C(NCc1ccn2ccnc2c1)c1ccc(C2CN(C(=O)c3ccncn3)C2)cc1 [Example 663, N-(imidazo[1,2-a]pyridin-7-ylmethyl)-4-[1-(pyrimidin-4-ylcarbonyl)azetidin-3-yl]benzamide] | 653 nM | 1.07 nM | 90 nM
14 | O=C(CC1CCCC1)Nc1ccc(C(=O)NCc2ccn3ccnc3c2)cc1 [Example 117, 4-[(cyclopentylacetyl)amino]-N-(imidazo[1,2-a]pyridin-7-ylmethyl)benzamide] | 392 nM | 0.436 nM | 63.9 nM
15 | O=C(NCc1ccn2ccnc2c1)c1ccc(C2CCN(C(=O)CC3CC3)CC2)cc1 [Example 312, 4-[1-(cyclopropylacetyl)piperidin-4-yl]-N-(imidazo[1,2-a]pyridin-7-ylmethyl)benzamide] | 165 nM | 0.243 nM | 65 nM
16 | CC[C@H](C)C(=O)N1CCC(Oc2ccc(C(=O)NCc3ccn4ccnc4c3)cc2)CC1 [Example 413, N-(imidazo[1,2-a]pyridin-7-ylmethyl)-4-({1-[(2S)-2-methylbutanoyl]piperidin-4-yl}oxy)benzamide] | 805 nM | 0.279 nM | 190 nM

The next compounds have a lower IC50 [1] than those just listed; values first:

Row | IC50 [1] | IC50 [2] | IC50 [3] | SMILES
17 | 103 nM | 0.46 nM | 7.07 nM | O=C(NCc1ccn2ccnc2c1)c1ccc(C2CCN(C(=O)c3ccccn3)C2)s1 (stereo not drawn) [Example 774, N-(imidazo[1,2-a]pyridin-7-ylmethyl)-5-[1-(pyridin-2-ylcarbonyl)pyrrolidin-3-yl]thiophene-2-carboxamide]
18 | 94.4 nM | 0.394 nM | 27.7 nM | O=C(NCc1ccn2ccnc2c1)c1ccc(C2CCN(C(=O)Cc3cccc(F)c3)C2)s1 (stereo not drawn) [Example 761, 5-{1-[(3-fluorophenyl)acetyl]pyrrolidin-3-yl}-N-(imidazo[1,2-a]pyridin-7-ylmethyl)thiophene-2-carboxamide]
19 | 81.7 nM | 0.69 nM | 4.08 nM | Cc1ccccc1C(=O)N1CC(c2ccc(C(=O)NCc3ccn4ccnc4c3)cc2)C1 [Example 644, N-(imidazo[1,2-a]pyridin-7-ylmethyl)-4-[1-(2-methylbenzoyl)azetidin-3-yl]benzamide]
20 | 80.7 nM | 0.424 nM | 3.83 nM | COCCNC(=O)N(CC1CCCO1)c1ncc(C(=O)NCc2ccn3ccnc3c2)s1 (stereo not drawn) [Example 138, N-(imidazo[1,2-a]pyridin-7-ylmethyl)-2-{[(2-methoxyethyl)carbamoyl](tetrahydrofuran-2-ylmethyl)amino}-1,3-thiazole-5-carboxamide]
21 | 67 nM | 0.709 nM | 2.16 nM | O=C(NCc1ccc2nccn2c1)c1cnc(N(CC2CCCO2)C(=O)CCc2ccno2)s1 (stereo not drawn) [Example 133, N-(imidazo[1,2-a]pyridin-6-ylmethyl)-2-{[3-(1,2-oxazol-5-yl)propanoyl](tetrahydrofuran-2-ylmethyl)amino}-1,3-thiazole-5-carboxamide]
22 | 66.2 nM | 0.169 nM | 18.8 nM | C[C@@H](O)Cn1cc(-c2ccc(C(=O)NCc3ccn4ccnc4c3)s2)cn1 [Example 304, 5-{1-[(2R)-2-hydroxypropyl]-1H-pyrazol-4-yl}-N-(imidazo[1,2-a]pyridin-7-ylmethyl)thiophene-2-carboxamide]
23 | 63.3 nM | 0.691 nM | 6.81 nM | O=C(NCc1ccn2ccnc2c1)c1ccc(-c2cnn(C[C@H]3CCCO3)c2)o1 [Example 743, N-(imidazo[1,2-a]pyridin-7-ylmethyl)-5-{1-[(2R)-tetrahydrofuran-2-ylmethyl]-1H-pyrazol-4-yl}furan-2-carboxamide]
24 | 62.7 nM | 0.275 nM | 1.34 nM | O=C(NCc1ccn2ccnc2c1)c1ccc(-c2cnn(CC3CCCCO3)c2)s1 (stereo not drawn) [Example 247, N-(imidazo[1,2-a]pyridin-7-ylmethyl)-5-[1-(tetrahydro-2H-pyran-2-ylmethyl)-1H-pyrazol-4-yl]thiophene-2-carboxamide]
25 | 54.8 nM | 0.327 nM | 6.71 nM | CC(C)(C)OC(=O)N1CC(c2ccc(C(=O)NCc3ccn4ccnc4c3)cc2)C1 [Example 402, tert-butyl 3-{4-[(imidazo[1,2-a]pyridin-7-ylmethyl)carbamoyl]phenyl}azetidine-1-carboxylate]
26 | 36 nM | 0.169 nM | 7.46 nM | O=C(NCc1ccn2ccnc2c1)c1ccc(-c2cnn(CC3CCCS(=O)(=O)C3)c2)s1 (stereo not drawn) [Example 344, 5-{1-[(1,1-dioxidotetrahydro-2H-thiopyran-3-yl)methyl]-1H-pyrazol-4-yl}-N-(imidazo[1,2-a]pyridin-7-ylmethyl)thiophene-2-carboxamide]
27 | 29 nM | 0.465 nM | 0.883 nM | Cc1ccccc1C(=O)N1CCC(c2ccc(C(=O)NCc3ccn4ccnc4c3)s2)C1 (stereo not drawn) [Example 794, N-(imidazo[1,2-a]pyridin-7-ylmethyl)-5-[1-(2-methylbenzoyl)pyrrolidin-3-yl]thiophene-2-carboxamide]
28 | 9.76 nM | 0.169 nM | 6.92 nM | O=C(NCc1ccn2ccnc2c1)c1ccc(-c2cnn(CC3CCC3)c2)s1 [Example 475, 5-[1-(cyclobutylmethyl)-1H-pyrazol-4-yl]-N-(imidazo[1,2-a]pyridin-7-ylmethyl)thiophene-2-carboxamide]
